Test results published in the supplement of paper PMC10307832.

Tests used:
Assay in all cases: relative viability (nuclei count vs DMSO), 5 days (fraction); higher = more cells survive
GW-2580 + Trametinib = compound: COC1=CC=C(C=C1)COC2=C(C=C(C=C2)CC3=CN=C(N=C3N)N)OC [GW-2580] + CC(=O)Nc1cccc(-n2c(=O)n(C3CC3)c(=O)c3c(Nc4ccc(I)cc4F)n(C)c(=O)c(C)c32)c1 [Trametinib] (partner 0.02 µM)
Procedure, shortened: (§1)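 Lung cancer cell lines, seeded in 1536-well plates, were treated the following day by pin tool with a single drug or with five library-drug doses (not always all listed) in √10 steps on top of a fixed anchor-drug dose. Cells were fixed and nuclei stained in one step after 5 days, and nuclei were counted. Relative viability is the nuclei count for treated wells divided by that for vehicle wells, reported as medians of duplicate plates.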

GW-2580 + Alpelisib = compound: COC1=CC=C(C=C1)COC2=C(C=C(C=C2)CC3=CN=C(N=C3N)N)OC [GW-2580] + Cc1nc(NC(=O)N2CCC[C@H]2C(N)=O)sc1-c1ccnc(C(C)(C)C(F)(F)F)c1 [Alpelisib] (partner 2 µM)
Procedure, shortened: as §1

GW-2580 + Dasatinib = compound: COC1=CC=C(C=C1)COC2=C(C=C(C=C2)CC3=CN=C(N=C3N)N)OC [GW-2580] + Cc1nc(Nc2ncc(C(=O)Nc3c(C)cccc3Cl)s2)cc(N2CCN(CCO)CC2)n1 [Dasatinib] (partner 0.075 µM)
Procedure, shortened: as §1

Fedratinib + Foretinib = compound: Cc1cnc(Nc2ccc(OCCN3CCCC3)cc2)nc1Nc1cccc(S(=O)(=O)NC(C)(C)C)c1 [Fedratinib] + COc1cc2c(Oc3ccc(NC(=O)C4(C(=O)Nc5ccc(F)cc5)CC4)cc3F)ccnc2cc1OCCCN1CCOCC1 [Foretinib] (partner 0.25 µM)
Procedure, shortened: as §1

Fedratinib + Phenformin = compound: Cc1cnc(Nc2ccc(OCCN3CCCC3)cc2)nc1Nc1cccc(S(=O)(=O)NC(C)(C)C)c1 [Fedratinib] + N=C(N)NC(=N)NCCc1ccccc1 [Phenformin] (partner 250 µM)
Procedure, shortened: as §1

Row | Cell Line | relative viability (GW-2580 + Trametinib; first compound 0.08 µM) | relative viability (GW-2580 + Trametinib; first compound 0.8 µM) | relative viability (GW-2580 + Trametinib; first compound 2.53 µM) | relative viability (GW-2580 + Trametinib; first compound 8 µM) | relative viability (GW-2580 + Alpelisib; first compound 0.08 µM) | relative viability (GW-2580 + Alpelisib; first compound 0.8 µM) | relative viability (GW-2580 + Alpelisib; first compound 2.53 µM) | relative viability (GW-2580 + Alpelisib; first compound 8 µM) | relative viability (GW-2580 + Dasatinib; first compound 0.08 µM) | relative viability (GW-2580 + Dasatinib; first compound 0.8 µM) | relative viability (GW-2580 + Dasatinib; first compound 2.53 µM) | relative viability (GW-2580 + Dasatinib; first compound 8 µM) | relative viability (Fedratinib + Foretinib; first compound 0.1 µM) | relative viability (Fedratinib + Foretinib; first compound 0.3162 µM) | relative viability (Fedratinib + Foretinib; first compound 1 µM) | relative viability (Fedratinib + Phenformin; first compound 0.1 µM) | relative viability (Fedratinib + Phenformin; first compound 0.3162 µM) | relative viability (Fedratinib + Phenformin; first compound 1 µM)
1 | NCI-H1793 | 0.467 | 0.425 | 0.344 | 0.464 | 0.659 | 0.679 | 0.634 | 0.775 | 0.415 | 0.451 | 0.355 | 0.399 | 0.506 | 0.765 | 0.45 | 0.27 | 0.178 | 0.312
2 | NCI-H1915 | 0.312 | 0.288 | 0.251 | 0.279 | 1.06 | 1.12 | 1.09 | 1.02 | 0.356 | 0.295 | 0.272 | 0.273 | 1.09 | 1.08 | 1.05 | 0.374 | 0.361 | 0.298
3 | NCI-H1944 | 0.463 | 0.387 | 0.336 | 0.377 | 0.826 | 0.94 | 0.828 | 0.759 | 0.207 | 0.224 | 0.203 | 0.212 | 0.837 | 0.962 | 0.824 | 0.194 | 0.228 | 0.213
4 | NCI-H1975 | 0.34 | 0.38 | 0.306 | 0.275 | 0.693 | 0.778 | 0.647 | 0.596 | 0.406 | 0.388 | 0.379 | 0.315 | 1.09 | 0.947 | 0.746 | 0.416 | 0.407 | 0.37
5 | NCI-H1993 | 0.507 | 0.576 | 0.522 | 0.519 | 0.684 | 0.677 |  | 0.704 | 0.611 | 0.606 | 0.524 | 0.568 | 0.763 | 0.818 | 0.808 | 0.508 | 0.476 | 0.493
6 | NCI-H2009 | 0.284 | 0.262 | 0.266 | 0.273 | 1.16 | 1.17 | 1.08 | 1.11 | 0.319 | 0.305 | 0.299 | 0.27 | 1.12 | 1.23 | 1.1 | 0.334 | 0.486 | 0.419
7 | NCI-H2023 | 0.523 | 0.639 | 0.541 | 0.577 | 0.611 | 0.625 | 0.513 | 0.604 | 0.636 | 0.652 | 0.542 | 0.587 | 0.8 | 0.873 | 0.643 | 0.431 | 0.463 | 0.456
8 | NCI-H2085 | 0.526 | 0.515 | 0.484 | 0.638 | 1.1 | 0.924 | 0.924 | 0.792 | 0.277 | 0.217 | 0.25 | 0.258 | 0.883 | 0.861 | 0.909 | 0.671 | 0.749 | 0.688
9 | NCI-H2087 | 0.178 | 0.204 | 0.2 | 0.227 | 1.23 | 0.999 | 1.02 | 0.613 | 1.11 | 0.846 | 0.785 | 0.774 | 0.65 | 1.01 | 1.01 | 0.45 | 0.477 | 0.379
